Consider two compounds from PMC9998502, “Functional selectivity of EM-2 analogs at the mu-opioid receptor” (Frontiers in Pharmacology, 2023).

Data set [1] in a line: Enzymatic degradation in rat brain homogenate. Type of data set: in vitro ADME. The following applies: 37°C. The protocol: Enzymatic degradation of EM-2 and the analogs was performed measuring their hydrolysis rates in the presence of rat brain homogenate. The homogenate was prepared prior to the experiment. Briefly, rat brains were homogenized in 20 volumes of Tris–HCl (50 mM, pH 7.4) using a Polytron and the obtained aliquots were stored at −80°C. In the experiment, aliquotes of brain homogenate (100 μL, 10 mg protein/mL) were incubated with 100 µL of a peptide (0.5 mM) over 0, 7.5; 15, 22.5; 30, and 60 min at 37°C, in a final volume of 200 µL. After the incubation the degradation reaction was stopped by placing the tube on ice and acidifying the content with 20 µL of HCl (1 M). The aliquots were centrifuged at 20,000 g for 10 min at 4°C. The supernatants were collected and filtered using Millex-GV syringe filters (Millipore). Then the analysis by HPLC on a Vydac C18 column (5 μm, 4.6 × 250 mm), using the solvent system of 0.1% TFA in water (A) and 80% acetonitrile in water containing 0.1% TFA (B) and a linear gradient of 0%–100% B over 25 min, was performed. Three independent experiments for each assay were carried out in duplicate. The rate constants of degradation (k) were obtained by the least square linear regression analysis of logarithmic peak areas [ln (A/AD)], where A—amount of remained peptide, AD—initial amount of peptide versus time. Degradation half-lives (t1/2) were calculated from the rate constants as ln2/k.

Data set [2] in a line: n-Octanol/water partition coefficient (log P). Particulars: n-octanol / 0.05 M HEPES buffer in 0.1 M NaCl, pH 7.4. Type of data set: physicochemical. The protocol:
Determination of log P was performed according to the method described by ([Liu et al., 2006]). Peptides were dissolved in 0.05 M HEPES buffer in 0.1 M NaCl, pH 7.4, then an equal volume of n-octanol was added and mixtures were vortexed for 2 min. Samples were centrifuged at 4,000 rpm for 1 min. After separation, aqueous and octanol phases were used to quantify peptide content by RP-HPLC.
Octanol phase was lyophilized and reconstituted in 80% acetonitrile in water containing 0.1% TFA before RP-HPLC. All n-octanol/buffer distribution studies were performed in triplicate.

Data set [3] deals with T1, human recombinant mu opioid receptor (Homo sapiens, UniProt P35372).
T1 construct: purchased; host or cells: CHO cells (membranes)
The data set is described as follows: Radioligand binding, [3H]DAMGO displacement, CHO cell membranes.

Data set [4] deals with T2, human recombinant kappa opioid receptor (Homo sapiens, UniProt P41145).
T2 construct: purchased; host or cells: CHO cells (membranes)
The experiment in a line: Radioligand binding, [3H]U-69593 displacement, CHO cell membranes.

In data set [5] the target is T3, human mu receptor (Homo sapiens, UniProt P35372).
T3 construct: expressed in transfected cells; host or cells: CHO cells stably co-expressing Gαqi5
The data set is described as follows: Calcium mobilization assay, CHO mu cells expressing Gαqi5. Type of data set: cell-based. On the technique in general: A change in cytosolic calcium serves as a functional read-out for many receptors and channels.

In data set [6] the target is T4, human kappa receptor (Homo sapiens, UniProt P41145).
T4 construct: expressed in transfected cells; host or cells: CHO cells stably co-expressing Gαqi5
The data set is described as follows: Calcium mobilization assay, CHO kappa cells expressing Gαqi5. Type of data set: cell-based. Particulars: inactive = inactive up to 10 µM.

In data set [7] the target is T5, mu receptor-β-arrestin 2 interaction (Homo sapiens, UniProt P35372). The experiment in a line: cell-based. Details: expressed in transfected cells. Particulars: read-out: pKb (CL95%) (converted). The protocol: In antagonism experiments, a 10 min preincubation with vehicle or fixed concentrations of ligand preceded the injection of increasing concentrations of EM-2.
Antagonist potencies (pKb) were computed applying the following equation: pKb = (log (CR − 1)) − log [Anta] with CR as the ratio between agonist potency (molar) in the presence and absence of antagonist and [Anta] is the molar concentration of antagonist. pKb represents the concentration of antagonist that occupies half of the receptor population at equilibrium, expressed in molar units.

The target in data set [8] is T6, delta-opioid receptor (Homo sapiens, UniProt P41143). The data set is described as follows: Radioligand binding, [3H]deltorphin-2 displacement, CHO cell membranes. Also on record: purchased; host or cells: CHO cells (membranes).
In data set [9] the target is T6, delta-opioid receptor. The data set is described as follows: Calcium mobilization assay, CHO delta cells expressing GαqG66Di5. Format: cell-based. Also on record: expressed in transfected cells; host or cells: CHO cells co-expressing GαqG66Di5.
The target in data set [10] is mu receptor-G protein interaction (Homo sapiens, UniProt P35372). The experiment in a line: BRET mu-G protein interaction assay (membranes of SH-SY5Y cells, mu-RLuc/Gβ1-RGFP).
Procedure: (§1) SH-SY5Y cells stably co-expressing the fusoproteins mu-RLuc and Gβ1-RGFP or mu-RLuc and β-arrestin 2-RGFP were grown in DMEM/F12 (1:1) medium supplemented with 10% FBS, 2 mM L-Glutamine, 100 μg/mL hygromycin B, 400 μg/mL G418, 100 units/mL penicillin G, 100 μg/mL streptomycin and 1 μg/mL Fungizone at 37°C in a humidified atmosphere with of 5% CO2.
Total protein in membrane preparations was determined by colorimetric method with the Quantum Protein-BCA kit (EuroClone, Pero (MI), IT) and measured using the multiplate reader Victor Nivo (PerkinElmer, Walthman, MA, United States). White opaque 96 wells microplates (PerkinElmer, Walthman, MA, United States) were used to carry out BRET assays. Cell membranes were thawed and resuspended in PBS supplemented with 0.02% BSA before the assay, and an amount of 5 μg of total protein was dispensed in each 96 well. All experiments were carried out at room temperature.
(§2) In agonism experiments, ligands were added and incubated for 5 min before microplate reading. […] BRET ratios were computed as follow: RGFPCPS/RLucCPSligand−RGFPCPS/RLucCPSvehicle
(§3) Concentration-response curves to agonists were fitted to the four-parameter logistic non-linear regression model as follows: Effect=Basal+Emax−Basal/1+10^LogEC50−Logligand×HillSlope
The target in data set [11] is T5, mu receptor-β-arrestin 2 interaction. The experiment in a line: BRET mu-β-arrestin 2 interaction assay (living SH-SY5Y cells, mu-RLuc/β-arrestin 2-RGFP), agonism. Particulars: BRET mu-β-arrestin 2; Inactive: Emax < 0.10; analog 6 obtained by forcing the Emax to 1.
Procedure: as §1
Mu- β-arrestin 2 interaction—Living SH-SY5Y cells expressing mu-RLuc and β-arrestin 2-RGFP were seeded at a cell density of 100,000 cells/well 24 h prior to the test. On the day of the experiment, medium was discarded, and cells were washed with PBS supplemented with 0.5 mM MgCl2, 0.9 mM CaCl2. Cells were subsequently incubated with 2 μM Prolume Purple Coelenterazine (NanoLight Technology, White Mountain, AZ; United States) for 10 min before bioluminescence reading.
as §2, §3
The conditions of data set [12]: ref Bergese et al., 2019, cited from earlier work.

T6 sequence (P41143 whole entry): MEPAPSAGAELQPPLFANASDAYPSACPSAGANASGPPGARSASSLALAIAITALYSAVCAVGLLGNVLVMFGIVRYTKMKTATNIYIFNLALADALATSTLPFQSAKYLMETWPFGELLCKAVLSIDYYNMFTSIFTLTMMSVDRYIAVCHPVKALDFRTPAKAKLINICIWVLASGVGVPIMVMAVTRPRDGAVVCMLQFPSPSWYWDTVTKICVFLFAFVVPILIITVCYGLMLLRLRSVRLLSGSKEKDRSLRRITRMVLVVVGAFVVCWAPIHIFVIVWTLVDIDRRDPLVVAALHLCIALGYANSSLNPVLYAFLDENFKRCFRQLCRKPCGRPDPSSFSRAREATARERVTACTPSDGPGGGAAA
T4 sequence (P41145 whole entry): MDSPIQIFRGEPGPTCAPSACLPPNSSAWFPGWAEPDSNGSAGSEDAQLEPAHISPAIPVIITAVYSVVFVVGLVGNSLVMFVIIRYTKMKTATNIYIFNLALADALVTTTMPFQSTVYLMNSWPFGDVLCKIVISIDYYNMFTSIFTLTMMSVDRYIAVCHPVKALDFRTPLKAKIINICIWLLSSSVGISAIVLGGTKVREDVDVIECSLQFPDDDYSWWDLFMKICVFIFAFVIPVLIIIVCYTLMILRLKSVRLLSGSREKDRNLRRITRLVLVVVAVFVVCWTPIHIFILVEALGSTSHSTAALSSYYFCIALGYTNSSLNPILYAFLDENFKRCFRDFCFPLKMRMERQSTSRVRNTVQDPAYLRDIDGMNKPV
T5 sequence (P35372 whole entry): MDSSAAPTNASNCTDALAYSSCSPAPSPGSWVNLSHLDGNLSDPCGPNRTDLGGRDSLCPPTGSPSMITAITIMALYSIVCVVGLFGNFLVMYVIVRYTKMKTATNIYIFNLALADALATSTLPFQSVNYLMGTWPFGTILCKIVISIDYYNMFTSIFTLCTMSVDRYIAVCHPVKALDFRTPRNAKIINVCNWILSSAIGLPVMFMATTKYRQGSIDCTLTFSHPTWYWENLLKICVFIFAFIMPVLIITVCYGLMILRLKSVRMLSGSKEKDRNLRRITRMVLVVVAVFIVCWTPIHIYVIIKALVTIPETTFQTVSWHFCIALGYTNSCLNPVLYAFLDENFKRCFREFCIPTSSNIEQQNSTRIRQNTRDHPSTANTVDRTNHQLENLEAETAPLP
T3 sequence (P35372 whole entry): as above
T2 sequence (P41145 whole entry): as the sequence (P41145 whole entry) above
mu receptor-G protein interaction, sequence (P62871 whole entry): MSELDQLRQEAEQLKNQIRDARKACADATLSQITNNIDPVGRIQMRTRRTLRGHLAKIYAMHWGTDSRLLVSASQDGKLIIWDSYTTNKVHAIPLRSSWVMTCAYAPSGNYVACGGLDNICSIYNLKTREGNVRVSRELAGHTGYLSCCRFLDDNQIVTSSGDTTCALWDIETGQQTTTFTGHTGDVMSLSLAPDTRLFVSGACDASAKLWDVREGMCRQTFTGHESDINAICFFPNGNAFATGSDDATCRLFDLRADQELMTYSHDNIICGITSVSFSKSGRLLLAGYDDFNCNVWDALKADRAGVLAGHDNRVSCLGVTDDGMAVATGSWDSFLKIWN
mu receptor-G protein interaction, sequence (P35372 whole entry): as the sequence (P35372 whole entry) above
T1 sequence (P35372 whole entry): as above

As usually defined, the logD is the decadic logarithm of the distribution of all forms, ionised or not, between an organic phase and buffer at a given pH. The low end stands for a more hydrophilic compound, the high end for a more lipophilic compound. The term Ki denotes a measure of affinity in units of concentration, obtained from inhibition or displacement. What is called EC50 is the concentration giving half of the maximal effect. With `Cc1cc(O)cc(C)c1C[C@H](N)C(=O)N1CCCC[C@@H]1C(=O)N[C@@H](Cc1ccccc1)C(=O)N[C@@H](Cc1ccccc1)C(N)=O` [analog 3, Dmt-(R)-Pip-Phe-Phe-NH2], in data set [1] (up to 60 min), the “100 x k, rate constant of degradation” value is on record as 0.73 ± 0.07 per min. The half-life at 0.25 mM in [1] (rat, pH 7.4, rat brain homogenate, ln2/k, read-out: t1/2, degradation half-life) came out at 1.57 ± 0.0467 h. The same compound came in with a logD in [2] of 2.49. Further, the Ki turned out to be 3.92 ± 0.5 nM in data set [3], 72 ± 6 nM in data set [4] and 37 ± 5 nM in data set [8]. Besides, the EC50 was 1.51 nM in [5], 148 nM in data set [9] and 1.91 nM in data set [10]. For the same compound, the “mu α±SEM” value in [5] (intrinsic activity, Emax ratio to standard agonist EM-2, inactive = inactive up to 10 µM) amounted to 0.70 ± 0.03. For the same compound, the “Kappa pEC50 (CL95%)” value in data set [6] (calcium mobilization) was “inactive”. In addition, the “Kappa α± SEM” value in data set [6] (intrinsic activity, Emax ratio to standard agonist dynorphin A) was “inactive”. Moreover, the Kb in data set [7] is 0.0794 nM. Moreover, the “Delta α± SEM” value in data set [9] (intrinsic activity, Emax ratio to standard agonist DPDPE, inactive = inactive up to 10 µM) turned out to be 0.56 ± 0.05. Besides, the “β-Arrestin 2 pEC50 (CL95%)” value in [11] was “Inactive”.
As to `COc1ccsc1CNCC[C@@]1(c2ccccn2)CCOC2(CCCC2)C1` [oliceridine, [(3-methoxythiophen-2-yl)methyl]({2-[(9R)-9-(pyridin-2-yl)-6-oxaspiro-[4.5]decan-9-yl]ethyl})amine], the “patients with lack of efficacy” value in data set [12] (moderate to severe acute pain in adults) was “less than 5%”. In addition, the “patients who experienced some adverse effects (vomiting, nausea, headache, or constipation)” value in [12] is 64%.
